Results published in ChEMBL document CHEMBL1201862, “PubChem BioAssay data set” (2004).
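Cells were grown in 96-well plates and exposed to each compound for 48 hours at five concentrations; endpoints were interpolated linearly between bracketing concentrations, or set to the highest concentration if not reached. Here, GI50 denotes the concentration required for 50% inhibition of growth.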 The source made the active and inactive calls. Cut-off read from the data, not from the text of the source: active = GI50 up to about 1.1 µM and inactive = higher.

Legend:
Assay in all cases: NCI anticancer screen, dose series, 48 h
[1] = tested on: MCF7
[2] = tested on: M14
[3] = tested on: OVCAR-8
[4] = tested on: SR
[5] = tested on: SK-MEL-2
[6] = tested on: SW-620
[7] = tested on: Hs-578T
[8] = tested on: DLD-1
[9] = tested on: DU-145
[10] = tested on: DMS-273
[11] = tested on: NCI/ADR-RES
[12] = tested on: RPMI-8226
[13] = tested on: CAKI-1
[14] = tested on: NCI-H23
[15] = tested on: 786-0
[16] = tested on: MOLT-4
[17] = tested on: SF-268
[18] = tested on: HCT-116
[19] = tested on: SN12C
[20] = tested on: SK-MEL-5
[21] = tested on: HT-29
[22] = tested on: OVCAR-4
[23] = tested on: PC-3
[24] = tested on: U-251
[25] = tested on: NCI-H226
[26] = tested on: HCC 2998
[27] = tested on: ACHN
[28] = tested on: KM12
[29] = tested on: HCT-15
[30] = tested on: SF-539
[31] = tested on: SNB-19
[32] = tested on: SNB-75
[33] = tested on: OVCAR-3
[34] = tested on: SK-MEL-28
[35] = tested on: NCI-H460
[36] = tested on: HOP-92
[37] = tested on: EKVX
[38] = tested on: Malme-3M
[39] = tested on: UO-31
[40] = tested on: SK-OV-3
[41] = tested on: A498
[42] = tested on: CCRF-CEM
[43] = tested on: HOP-62
[44] = tested on: LOX IMVI
[45] = tested on: SF-295
[46] = tested on: HL-60
[47] = tested on: UACC-62
[48] = tested on: TK-10
[49] = tested on: MDA-MB-231
[50] = tested on: A549
[51] = tested on: IGROV-1
[52] = tested on: BT-549
[53] = tested on: MDA-MB-435
[54] = tested on: K562
[55] = tested on: T47D
[56] = tested on: UACC-257
[57] = tested on: COLO 205
[58] = tested on: OVCAR-5
[59] = tested on: RXF 393
[60] = tested on: MDA-N
[61] = tested on: NCI-H522

COc1ccc2c(c1)-c1nn(CCCN(C)C)c3ccc([N+](=O)[O-])c(c13)N2 [PYRAZOLOACRIDINE]
GI50 [1]: 0.333 µM (active) | GI50 [2]: 0.61 µM (active) | GI50 [3]: 0.118 µM (active) | GI50 [4]: 0.173 µM (active) | GI50 [5]: 0.647 µM (active) | GI50 [6]: 0.133 µM (active) | GI50 [7]: 0.603 µM (active) | GI50 [8]: 0.262 µM (active) | GI50 [9]: 0.484 µM (active) | GI50 [10]: 0.135 µM (active) | GI50 [11]: 0.0986 µM (active) | GI50 [12]: 0.305 µM (active) | GI50 [13]: 0.396 µM (active) | GI50 [14]: 0.662 µM (active) | GI50 [15]: 0.191 µM (active) | GI50 [16]: 0.0662 µM (active) | GI50 [17]: 0.283 µM (active) | GI50 [18]: 0.0986 µM (active) | GI50 [19]: 0.199 µM (active) | GI50 [20]: 0.536 µM (active) | GI50 [21]: 0.137 µM (active)

N=C(N)Nc1ccc(-c2ccc(NC(=N)N)cc2)cc1
GI50 [22]: 60.7 µM (inactive) | GI50 [23]: 15.7 µM (inactive) | GI50 [24]: 23.6 µM (inactive) | GI50 [25]: 15.7 µM (inactive) | GI50 [26]: 63 µM (inactive) | GI50 [1]: 39.2 µM (inactive) | GI50 [2]: 36.1 µM (inactive) | GI50 [3]: 43.8 µM (inactive) | GI50 [4]: 14.6 µM (inactive) | GI50 [27]: 45.3 µM (inactive) | GI50 [28]: 33.5 µM (inactive) | GI50 [29]: 49.5 µM | GI50 [5]: 34.4 µM (inactive) | GI50 [6]: 62.5 µM (inactive) | GI50 [7]: 19.4 µM (inactive) | GI50 [30]: 20.9 µM (inactive) | GI50 [31]: 41.4 µM (inactive) | GI50 [32]: 9.12 µM (inactive) | GI50 [33]: 22 µM (inactive) | GI50 [34]: 45.5 µM (inactive) | GI50 [35]: 17.1 µM (inactive) | GI50 [36]: 45 µM (inactive) | GI50 [37]: 40.3 µM (inactive) | GI50 [38]: 19 µM (inactive) | GI50 [39]: 46.1 µM (inactive) | GI50 [40]: > 55.8 µM (inactive) | GI50 [41]: 6.95 µM (inactive) | GI50 [42]: 37.3 µM (inactive) | GI50 [43]: 16.7 µM (inactive) | GI50 [44]: 50.8 µM (inactive) | GI50 [9]: 25.9 µM (inactive) | GI50 [11]: 42.5 µM (inactive) | GI50 [45]: 17.8 µM (inactive) | GI50 [46]: 40.9 µM (inactive) | GI50 [47]: 40.1 µM (inactive) | GI50 [48]: 14.3 µM (inactive) | GI50 [49]: > 100 µM (inactive) | GI50 [12]: 19.5 µM (inactive) | GI50 [50]: 6.03 µM (inactive) | GI50 [13]: 41.1 µM (inactive) | GI50 [51]: 20.2 µM (inactive) | GI50 [52]: 45.8 µM (inactive) | GI50 [14]: 35.6 µM (inactive) | GI50 [15]: 24 µM (inactive) | GI50 [53]: 55 µM (inactive) | GI50 [54]: 35.4 µM (inactive) | GI50 [55]: 44.4 µM (inactive) | GI50 [16]: > 100 µM (inactive) | GI50 [56]: > 73.5 µM (inactive) | GI50 [57]: 21.5 µM (inactive) | GI50 [58]: 11.9 µM (inactive) | GI50 [59]: 22.4 µM (inactive) | GI50 [60]: 40.7 µM (inactive) | GI50 [17]: 37.3 µM (inactive) | GI50 [18]: 28.8 µM (inactive) | GI50 [19]: 12.4 µM (inactive) | GI50 [20]: 16.3 µM (inactive) | GI50 [21]: 45.5 µM (inactive) | GI50 [61]: 32.2 µM (inactive)

O=CN1CCC23CC(O)CCC2C1Cc1cc(Oc2nnnn2-c2ccccc2)cc(O)c13 (centres undefined)
GI50 [22]: 86.1 µM (inactive) | GI50 [23]: > 100 µM (inactive) | GI50 [24]: > 100 µM (inactive) | GI50 [25]: > 100 µM (inactive) | GI50 [26]: > 100 µM (inactive) | GI50 [1]: 54 µM (inactive) | GI50 [2]: > 100 µM (inactive) | GI50 [3]: > 100 µM (inactive) | GI50 [4]: 55 µM (inactive) | GI50 [27]: > 100 µM (inactive) | GI50 [28]: 57.9 µM (inactive) | GI50 [29]: 80 µM | GI50 [5]: 81.3 µM (inactive) | GI50 [6]: > 100 µM (inactive) | GI50 [7]: > 100 µM (inactive) | GI50 [30]: > 100 µM (inactive) | GI50 [31]: > 100 µM (inactive) | GI50 [32]: > 100 µM (inactive) | GI50 [33]: > 100 µM (inactive) | GI50 [34]: > 100 µM (inactive) | GI50 [35]: 85.9 µM (inactive) | GI50 [36]: 44.7 µM (inactive) | GI50 [37]: > 100 µM (inactive) | GI50 [38]: > 100 µM (inactive) | GI50 [39]: 85.3 µM (inactive) | GI50 [40]: > 100 µM (inactive) | GI50 [41]: 68.4 µM (inactive) | GI50 [42]: 65.5 µM (inactive) | GI50 [43]: > 100 µM (inactive) | GI50 [44]: 57.3 µM (inactive) | GI50 [9]: > 100 µM (inactive) | GI50 [11]: > 100 µM (inactive) | GI50 [45]: > 100 µM (inactive) | GI50 [46]: 52.1 µM (inactive) | GI50 [47]: 65.2 µM (inactive) | GI50 [48]: > 100 µM (inactive) | GI50 [49]: > 100 µM (inactive) | GI50 [12]: 93.3 µM (inactive) | GI50 [50]: > 100 µM (inactive) | GI50 [13]: > 100 µM (inactive) | GI50 [51]: 37.8 µM (inactive) | GI50 [52]: 51.9 µM (inactive) | GI50 [14]: > 100 µM (inactive) | GI50 [15]: > 100 µM (inactive) | GI50 [53]: 66.7 µM (inactive) | GI50 [54]: > 100 µM (inactive) | GI50 [55]: 79.1 µM (inactive) | GI50 [16]: 48.9 µM (inactive) | GI50 [56]: > 100 µM (inactive) | GI50 [57]: 32.9 µM (inactive) | GI50 [58]: > 100 µM (inactive) | GI50 [59]: > 100 µM (inactive) | GI50 [60]: > 100 µM (inactive) | GI50 [17]: > 100 µM (inactive) | GI50 [18]: > 100 µM (inactive) | GI50 [19]: > 100 µM (inactive) | GI50 [20]: 47.2 µM (inactive) | GI50 [21]: 59.4 µM (inactive) | GI50 [61]: 91.4 µM (inactive)
